Measured values from PubChem BioAssay AID1259407 (Chemical Carcinogenesis Research Information System (CCRIS), 2018).
Active and inactive are the calls of the source. No rule for the calls is given here.

System: CCRIS mutagenicity, Ames/micronucleus/aberration tests
Test: CCRIS mutagenicity studies
Settings: Test System: AMES SALMONELLA TYPHIMURIUM, Method: PREINCUBATION

Measured: mutagenic call

O=CNc1ccccc1
inactive: Strain/Indicator: TA97, Metabolic Activation: HAMSTER, LIVER, S-9, AROCLOR 1254 (10 OR 30%) inactive; negative | Strain/Indicator: TA97, Metabolic Activation: NONE inactive; negative | Strain/Indicator: TA97, Metabolic Activation: RAT, LIVER, S-9, AROCLOR 1254 (10 OR 30%) inactive; negative | Strain/Indicator: TA98, Metabolic Activation: HAMSTER, LIVER, S-9, AROCLOR 1254 (10 OR 30%) inactive; negative | Strain/Indicator: TA98, Metabolic Activation: NONE inactive; negative | Strain/Indicator: TA98, Metabolic Activation: RAT, LIVER, S-9, AROCLOR 1254 (10 OR 30%) inactive; negative | Strain/Indicator: TA100, Metabolic Activation: HAMSTER, LIVER, S-9, AROCLOR 1254 (10 OR 30%) inactive; negative | Strain/Indicator: TA100, Metabolic Activation: NONE inactive; negative | Strain/Indicator: TA100, Metabolic Activation: RAT, LIVER, S-9, AROCLOR 1254 (10 OR 30%) inactive; negative | Strain/Indicator: TA1535, Metabolic Activation: HAMSTER, LIVER, S-9, AROCLOR 1254 (10 OR 30%) inactive; negative | Strain/Indicator: TA1535, Metabolic Activation: NONE inactive; negative | Strain/Indicator: TA1535, Metabolic Activation: RAT, LIVER, S-9, AROCLOR 1254 (10 OR 30%) inactive; negative
